According to patent publication US9085570B2, “Substituted benzamides and their uses” (The Board of Trustees of the Leland Stanford Junior …, priority 2010, dated 2015):

Legend:
[1] = tested on: RCC4 with VHL-reintroduced (RCC4/VHL); experiment: XTT cell viability assay in RCC4/VHL cells, selectivity ratio versus RCC4; type: cell-based; conditions: Ratio = IC50RCC4/VHL/IC50RCC4
Method: (§1) Cell Culture. RCC4 parental and RCC4 with VHL-reintroduced (RCC4/VHL), SN12C and SN12C-CSCG-VHL shRNA were maintained in DMEM supplemented with 10% FCS.
(§2) Cell Viability Assays. For 2,3-bis[2-methoxy-4-nitro-5-sulfophenyl]-2H-tetrazolium-5-carboxanilide (XTT) assays, five thousand cells were plated in 96-well plates. The next day, vehicle (DMSO) or drug was added by serial dilution. Four days later, media were aspirated, XTT solution (0.3 mg/ml of XTT (Sigma), […] N-methyl dibenxopyrazine methyl sulfate (Simga) in phenol red-free media) was added, and the plates were incubated at 37° C. for 1-2 hours. Metabolism of XTT was quantified by measuring the absorbance at 450 nm IC50s were calculated using linear interpolation. For clonogenic survival assays, three hundred cells were plated per 60 mm tissue culture dish. The cells were allowed to attach overnight and then treated with vehicle or drug for 14 days. Colonies were fixed and stained with crystal violet (0.1% crystal violet in 95% ethanol). All conditions were measured in triplicate and each experiment was done in duplicate or triplicate. To determine necrosis, cells were treated with drug for a given time point. Media and cells were collected, centrifugated, and resuspended in 0.4% trypan blue (Invitrogen). Live and dead cells were counted on a hematocytometer.
(§3) The designation A reflects an IC50 of <1 nM; B reflects an IC50 ranging from 1 to 20 nM; and C is an IC50 of >20 nM. The designation “a” reflects a ratio of RCC4/RCC-VHL+ranging from 1 to ≦10; “b” reflects from 10 to ≦100; “c” reflects a ratio of >100. Compounds I-29 have an IC50 value of ≦10 μM when tested in the above assay.

[2] = tested on: RCC4; experiment: XTT cell viability assay in RCC4 cells (VHL-deficient renal carcinoma); type: cell-based; conditions: four days drug exposure
Method: as §1, §2, §3

With `Cc1oc(-c2ccc(C(=O)NCc3cccnc3)cc2)nc1CS(=O)(=O)C1CCNCC1` [Example 39, 4-(5-Methyl-4-((piperidin-4-ylsulfonyl)methyl)oxazol-2-yl)-N-(pyridin-3-ylmethyl)benzamide] the “Ratio (IC50 RCC4 Proficient VHL)/ IC50 RCC4 Deficient VHL)” value [1] was “b (from 10 to ≦100)” and the IC50 ([2]; Homo sapiens, 96 h) was > 20 nM.

`Cc1oc(-c2ccc(C(=O)NCc3cccnc3)cc2)nc1CS(=O)(=O)C1CCN(C)CC1` [Example 40, 4-(5-Methyl-4-((1-methylpiperidin-4-ylsulfonyl)methyl)oxazol-2-yl)-N-(pyridin-3-ylmethyl)benzamide] was tested, and the “Ratio (IC50 RCC4 Proficient VHL)/ IC50 RCC4 Deficient VHL)” value [1] was “b (from 10 to ≦100)” and the IC50 ([2]; Homo sapiens, 96 h) was < 1 nM.

`Cc1oc(-c2ccc(C(=O)NCc3cccnc3)cc2)nc1CS(=O)(=O)[C@H]1CC[C@@H](N)CC1` [Example 41, 4-(4-(((1s,4s)-4-aminocyclohexylsulfonyl)methyl)-5-methyloxazol-2-yl)-N-(pyridin-3-ylmethyl)benzamide] was tested, and the “Ratio (IC50 RCC4 Proficient VHL)/ IC50 RCC4 Deficient VHL)” value [1] was “b (from 10 to ≦100)” and the IC50 [2] was > 20 nM.

`Cc1oc(-c2ccc(C(=O)NCc3cccnc3)cc2)nc1CS(=O)(=O)[C@H]1CC[C@@H](N2CCCC2)CC1` [Example 42, 4-[5-methyl-4-([[4-(pyrrolidin-1-yl)cyclohexane]sulfonyl]methyl)-1,3-oxazol-2-yl]-N-(pyridin-3-ylmethyl)benzamide] was tested, and the “Ratio (IC50 RCC4 Proficient VHL)/ IC50 RCC4 Deficient VHL)” value [1] was “b (from 10 to ≦100)” and the IC50 ([2]; Homo sapiens, 96 h) was < 1 nM.

For `Cc1oc(-c2ccc(C(=O)NCc3cccnc3)cc2)nc1CS(=O)(=O)[C@H]1CC[C@@H](N2CCCCC2)CC1` [Example 43, 4-[5-Methyl-4-([[4-(piperidin-1-yl)cyclohexane]sulfonyl]methyl)-1,3-oxazol-2-yl]-N-(pyridin-3-ylmethyl)benzamide], the “Ratio (IC50 RCC4 Proficient VHL)/ IC50 RCC4 Deficient VHL)” value [1] was “b (from 10 to ≦100)” and the IC50 ([2]; Homo sapiens, 96 h) was < 1 nM.

In the case of `Cc1oc(-c2ccc(C(=O)NCc3cccnc3)cc2)nc1CS(=O)(=O)[C@H]1CC[C@H](N)CC1` [Example 44, 4-(4-[[(4-Aminocyclohexane)sulfonyl]methyl]-5-methyl-1,3-oxazol-2-yl)-N-(pyridin-3-ylmethyl)benzamide], the “Ratio (IC50 RCC4 Proficient VHL)/ IC50 RCC4 Deficient VHL)” value [1] is reported as “b (from 10 to ≦100)” and the IC50 ([2]; Homo sapiens, 96 h) is reported as > 20 nM.

For `Cc1oc(-c2ccc(C(=O)NCc3cccnc3)cc2)nc1CS(=O)(=O)[C@H]1CC[C@H](N2CCCC2)CC1` [Example 45, 4-[5-Methyl-4-([[4-(pyrrolidin-1-yl)cyclohexane]sulfonyl]methyl)-1,3-oxazol-2-yl]-N-(pyridin-3-ylmethyl)benzamide], the “Ratio (IC50 RCC4 Proficient VHL)/ IC50 RCC4 Deficient VHL)” value [1] was “b (from 10 to ≦100)” and the IC50 ([2]; Homo sapiens, 96 h) was 1 to 20 nM.

`Cc1oc(-c2ccc(C(=O)NCc3cccnc3)cc2)nc1CS(=O)(=O)[C@H]1CC[C@H](N2CCCCC2)CC1` [Example 46, 4-[5-Methyl-4-([[4-(piperidin-1-yl)cyclohexane]sulfonyl]methyl)-1,3-oxazol-2-yl]-N-(pyridin-3-ylmethyl)benzamide] was tested, and the “Ratio (IC50 RCC4 Proficient VHL)/ IC50 RCC4 Deficient VHL)” value [1] was “b (from 10 to ≦100)” and the IC50 ([2]; Homo sapiens, 96 h) was < 1 nM.

For `Cc1oc(-c2ccc(C(=O)NCc3cccnc3)cc2)nc1CS(=O)(=O)[C@H]1CC[C@H](N)C1` [Example 47, 4-[4-([[(1S,3S)-3-Aminocyclopentane]sulfonyl]methyl)-5-methyl-1,3-oxazol-2-yl]-N-(pyridin-3-ylmethyl)benzamide], the “Ratio (IC50 RCC4 Proficient VHL)/ IC50 RCC4 Deficient VHL)” value [1] was “b (from 10 to ≦100)” and the IC50 ([2]; Homo sapiens, 96 h) was > 20 nM.

For `Cc1oc(-c2ccc(C(=O)NCc3cccnc3)cc2)nc1CS(=O)(=O)[C@H]1CC[C@H](N2CCCC2)C1` [Example 48, 4-[5-Methyl-4-([[(1S,3S)-3-(pyrrolidin-1-yl)cyclopentane]sulfonyl]methyl)-1,3-oxazol-2-yl]-N-(pyridin-3-ylmethyl)benzamide], the “Ratio (IC50 RCC4 Proficient VHL)/ IC50 RCC4 Deficient VHL)” value [1] was “b (from 10 to ≦100)” and the IC50 ([2]; Homo sapiens, 96 h) was < 1 nM.

With `Cc1oc(-c2ccc(C(=O)NCc3cccnc3)cc2)nc1CS(=O)(=O)[C@H]1CC[C@H](N2CCCCC2)C1` [Example 49, 4-[5-Methyl-4-([[(1S,3S)-3-(piperidin-1-yl)cyclopentane]sulfonyl]methyl)-1,3-oxazol-2-yl]-N-(pyridin-3-ylmethyl)benzamide] the “Ratio (IC50 RCC4 Proficient VHL)/ IC50 RCC4 Deficient VHL)” value [1] was “b (from 10 to ≦100)” and the IC50 [2] was < 1 nM.

In the case of `Cc1oc(-c2ccc(C(=O)NCc3cccnc3)cc2)nc1CS(=O)(=O)[C@@H]1CC[C@H](N)C1` [Example 50, 4-[4-([[(1R,3S)-3-Aminocyclopentane]sulfonyl]methyl)-5-methyl-1,3-oxazol-2-yl]-N-(pyridin-3-ylmethyl)benzamide], the “Ratio (IC50 RCC4 Proficient VHL)/ IC50 RCC4 Deficient VHL)” value [1] is reported as “b (from 10 to ≦100)” and the IC50 ([2]; Homo sapiens, 96 h) is reported as > 20 nM.

For `Cc1oc(-c2ccc(C(=O)NCc3cccnc3)cc2)nc1CS(=O)(=O)[C@@H]1CC[C@H](N2CCCC2)C1` [Example 51, 4-[5-Methyl-4-([[(1R,3S)-3-(pyrrolidin-1-yl)cyclopentane]sulfonyl]methyl)-1,3-oxazol-2-yl]-N-(pyridin-3-ylmethyl)benzamide], the “Ratio (IC50 RCC4 Proficient VHL)/ IC50 RCC4 Deficient VHL)” value [1] was “b (from 10 to ≦100)” and the IC50 ([2]; Homo sapiens, 96 h) was < 1 nM.

For `Cc1oc(-c2ccc(C(=O)NCc3cccnc3)cc2)nc1CS(=O)(=O)[C@@H]1CC[C@H](N2CCCCC2)C1` [Example 52, 4-[5-Methyl-4-([[(1R,3S)-3-(piperidin-1-yl)cyclopentane]sulfonyl]methyl)-1,3-oxazol-2-yl]-N-(pyridin-3-ylmethyl)benzamide], the “Ratio (IC50 RCC4 Proficient VHL)/ IC50 RCC4 Deficient VHL)” value [1] was “a (a ratio of RCC4/RCC-VHL+ranging from 1 to ≦10)” and the IC50 ([2]; Homo sapiens, 96 h) was < 1 nM.

In the case of `Cc1oc(-c2ccc(C(=O)NCc3cccnc3)cc2)nc1CS(=O)(=O)C1CCN(CC(C)C)CC1` [Example 53, 4-(5-methyl-4-[[1-(2-methylpropyl)piperidine-4-sulfonyl]methyl]-1,3-oxazol-2-yl)-N-(pyridin-3-ylmethyl)benzamide], the “Ratio (IC50 RCC4 Proficient VHL)/ IC50 RCC4 Deficient VHL)” value [1] is reported as “a (a ratio of RCC4/RCC-VHL+ranging from 1 to ≦10)” and the IC50 ([2]; Homo sapiens, 96 h) is reported as < 1 nM.

For `Cc1oc(-c2ccc(C(=O)NCc3cccnc3)cc2)nc1CS(=O)(=O)C1CCN(C2CCCC2)CC1` [Example 54, 4-[4-[(1-cyclopentylpiperidine-4-sulfonyl)methyl]-5-methyl-1,3-oxazol-2-yl]-N-(pyridin-3-ylmethyl)benzamide], the “Ratio (IC50 RCC4 Proficient VHL)/ IC50 RCC4 Deficient VHL)” value [1] was “b (from 10 to ≦100)” and the IC50 ([2]; Homo sapiens, 96 h) was < 1 nM.

`Cc1oc(-c2ccc(C(=O)NCc3cccnc3)cc2)nc1CS(=O)(=O)C1CCN(C2CCCCC2)CC1` [Example 55, 4-[4-[(1-cyclohexylpiperidine-4-sulfonyl)methyl]-5-methyl-1,3-oxazol-2-yl]-N-(pyridin-3-ylmethyl)benzamide] was tested, and the “Ratio (IC50 RCC4 Proficient VHL)/ IC50 RCC4 Deficient VHL)” value [1] was “a (a ratio of RCC4/RCC-VHL+ranging from 1 to ≦10)” and the IC50 ([2]; Homo sapiens, 96 h) was < 1 nM.

`O=C(Nc1cccnc1)c1ccc(CNS(=O)(=O)c2ccco2)cc1` [II-8, N-(3-Pyridinyl)-4-{[(2-furanylsulfonyl)amino]methyl}benzamide] was tested, and the Ratio [1] was “a (a ratio of RCC4/RCC-VHL+ranging from 1 to ≦10)” and the IC50 ([2]; Homo sapiens, 96 h) was > 20 nM.
